Experimental data: patent EP0513703A2, “Carbamate esters of eseroline having anticholinesterase activity, a process for their preparation and relative pharmaceutical compositions containing them as the active principle” (priority 1991, dated 1992)
Like-named read-outs stand apart in the source and are kept apart here.

Experiments:
mice (Swiss strain) = experiment: Acute toxicity, LD50 by oral route in mice (class E derivatives); assay type: in vivo; conditions: mouse, suspension in 2 % carboxymethylcellulose, observation 7 days
Text: (§1) The letal doses 50 (LD50) by oral route (suspension in 2 % carboxymethylcellulose) are reported herinbelow: TABLE 9

acetylcholinesterase = assay type: in vivo, Wistar male rats; conditions: rat
mouse [1] = experiment: Spontaneous motility, Dews method modified according to Carminati (class E derivatives); assay type: in vivo; conditions: mouse (Strain Swiss)
Text: (§2) The Dews method was used, modified according to Carminati (Arch. int. Pharmacodyn. et Thér 181, 68,1969).

SWISS male mice = experiment: Electroencephalographic activity (class E derivatives); assay type: in vivo; conditions: 0.4 mg/kg/os, in the course of the successive 30 minutes
[2] = Pharmacokinetics, plasma level by HPLC (MS001); assay type: in vivo, Wistar male rats; conditions: rat, 0.5 mg/kg/os
Method: The presence of MS001 in plasma was detected by HPLC.
With the optimized method the detection limit was of 0.20 µg per ml of plasma.

[3] = Acute toxicity, LD50 by oral route in mice (class A derivatives); assay type: in vivo; conditions: both sexes, Swiss, in vivo, mouse, suspension in 2 % carboxymethylcellulose, observation 7 days, read-out: LD50 per os
Text: The letal doses 50 (LD50) by oral route (suspension in 2 % carboxymethylcellulose) are reported herinbelow: TABLE 1

mouse [4] = experiment: Spontaneous motility, Dews method modified according to Carminati (class A derivatives); assay type: in vivo; conditions: mouse (Swiss), minimum doses
Text: as §2

SWISS mice [5] = experiment: Antagonism of the central stimulating (hypermotor) effect of scopolamine (class A derivatives); assay type: in vivo; conditions: given 30 minutes before scopolamine 1 mg/kg s.c.
Text: (§3) At this dose the substance provoked in all the animals a considerable increase (80-100%) of the spontaneous motility, studied according to the above mentioned method.

mice = experiment: Toxicity, LD50 by intraperitoneal route (class B derivatives); assay type: in vivo; conditions: death within 24 hours of 50% of the tested animals
Text: In the following table reported are LD50 values determined on mice for the listed compounds and compared with that of physostigmine administered by the same (intraperitoneal) route.

mouse [6] = experiment: Toxicity, LD50 by intraperitoneal route (class C derivatives); assay type: in vivo
Text: In the following table reported are the LD50 values determined on mouse for the compounds listed and compared with the corresponding LD50 value for physostigmine, administered by the same (intraperitoneal) route.

[7] = Acute toxicity, LD50 by oral route in mice (class D derivatives); assay type: in vivo; conditions: both sexes, Swiss, in vivo, mouse, suspension in 2 % carboxymethylcellulose, observation 7 days, read-out: LD50 per os
Text: The letal doses 50 (LD50) by oral route (suspension in 2 % carboxymethylcellulose) are reported hereinbelow: TABLE 6

mouse [8] = experiment: Spontaneous motility, Dews method modified according to Carminati (class D derivatives); assay type: in vivo; conditions: mouse (Swiss)
Text: as §2

SWISS mice [9] = experiment: Antagonism of the central stimulating (hypermotor) effect of scopolamine (class D derivatives); assay type: in vivo; conditions: given 30 minutes before scopolamine 1 mg/kg s.c.
Text: as §3

[10] = Acute toxicity, LD50 by oral route in mice (class E derivatives); assay type: in vivo; conditions: both sexes, Swiss, in vivo, mouse, suspension in 2 % carboxymethylcellulose, observation 7 days, read-out: LD50 per os
Text: as §1

SWISS mice [11] = experiment: Antagonism of the central stimulating (hypermotor) effect of scopolamine (class E derivatives); assay type: in vivo; conditions: given 30 minutes before scopolamine 1 mg/kg s.c.
Text: At this dose the substance provoked a considerable increase (80-100%) of the spontaneous motility, studied according to the above mentioned method.

[12] = Acute toxicity, LD50 by oral administration in mice (class F derivatives); conditions: both, Swiss, mouse, in vivo, po
[13] = acetylcholinesterase inhibition 20 minutes after oral administration, limits in brackets

CN1CC[C@@]2(C)c3cc(OC(=O)NCCCCCCCCNC(=O)Oc4ccc5c(c4)[C@]4(C)CCN(C)[C@@H]4N5C)ccc3N(C)[C@@H]12 [MS001, (3a S-cis) - 1,2,3,3a,8,8a hexahydro - 1,3a,8 - trimethyl pyrrol [2,3-b]-indol-5-ol-1,8-octandicarbamate ester]
LD50 per os (mice (Swiss strain)): 51.40 ± 5.48 mg/kg | INHIBITION % OF ACETYLCHOLINESTERASE (AchE) after 60 minutes brain (acetylcholinesterase; 0.2 mg/kg/OS): 43.41 ± 3.25% | INHIBITION % OF ACETYLCHOLINESTERASE (AchE) after 60 minutes serum (acetylcholinesterase; 0.2 mg/kg/OS): 36.22 ± 6.20% | INHIBITION % OF ACETYLCHOLINESTERASE (AchE) after 120 minutes brain (acetylcholinesterase; 0.2 mg/kg/OS): 19.6 ± 3.41% | INHIBITION % OF ACETYLCHOLINESTERASE (AchE) after 120 minutes serum (acetylcholinesterase; 0.2 mg/kg/OS): 23.12 ± 5.28% | ED50 (mg/kg/os) brain (acetylcholinesterase; [13]): 0.17 (0.12 - 0.23) mg/kg/os | ED50 (mg/kg/os) serum (acetylcholinesterase; [13]): 0.18 (0.12 - 0.26) mg/kg/os | oral dose causing a significant decrease of the spontaneous motility (mouse [1]): 0.25 mg/kg | decrease of the spontaneous motility (on average) (mouse [1]; oral, 0.25 mg/kg): ~-25% | modifications of the electroencephalogram (SWISS male mice): increase of the amplitude and a decrease of the frequency of the electroencephalogram | concentration in plasma after 15 minutes [2]: 10640 ± 6260 ng/mL | concentration in plasma after 120 minutes [2]: 32120 ± 6410 ng/mL | concentration in plasma after twelve hours [2]: 11310 ± 3180 ng/mL | maximum peak in plasma [2]: 41.24 ± 8.36 µg/mL | time of the maximum peak in plasma [2]: 90 '

CNC(=O)Oc1ccc2c(c1)[C@]1(C)CCN(C)[C@@H]1N2C [Physostigmine, physostigmine, reference compound]
LD50 at 7 days [3]: 4.37 ± 1.22 mg/kg | oral dose causing a significant decrease of the spontaneous motility (mouse [4]): 0.6 mg/kg | dose completely undoing the hypermotor effect of scopolamine (SWISS mice [5]): 0.4 mg/kg/os | LD50 (mg/kg i.p.) (mice): 0.6 mg/kg i.p. | LD50 (mg/kg i.p) (mouse [6]): 0.6 mg/kg i.p | LD50 at 7 days [7]: 4.12 ± 0.89 mg/kg | oral dose causing a significant decrease of the spontaneous motility (mouse [8]): 0.6 mg/kg | dose completely undoing the hypermotor effect of scopolamine (SWISS mice [9]): 0.4 mg/kg/os | LD50 at 7 days [10]: 3.78 ± 0.86 mg/kg | INHIBITION % OF ACETYLCHOLINESTERASE (AchE) after 60 minutes brain (acetylcholinesterase; in vivo, 0.4 mg/kg): 22.3 ± 5.12% | INHIBITION % OF ACETYLCHOLINESTERASE (AchE) after 60 minutes serum (acetylcholinesterase; in vivo, 0.4 mg/kg): 18.41 ± 4.16% | INHIBITION % OF ACETYLCHOLINESTERASE (AchE) after 120 minutes brain (acetylcholinesterase; in vivo, 0.4 mg/kg): 2.41 ± 1.33% | INHIBITION % OF ACETYLCHOLINESTERASE (AchE) after 120 minutes serum (acetylcholinesterase; in vivo, 0.4 mg/kg): 3.44 ± 1.21% | ED50 (mg/kg/os) brain (acetylcholinesterase; in vivo, po): 0.38 (0.24 - 0.60) mg/kg/os | ED50 (mg/kg/os) serum (acetylcholinesterase; in vivo, po): 0.37 (0.23 - 0.59) mg/kg/os | oral dose causing a significant decrease of the spontaneous motility (mouse [1]): 0.6 mg/kg | dose completely undoing the hypermotor effect of scopolamine (SWISS mice [11]): 0.4 mg/kg/os | LD50 [12]: 4.5 mg/kg
